# Measurements published in patent EP2608671B1, “COMPOUNDS FOR TREATMENT OF CANCER” (Gtx, Inc., priority 2010, dated 2012).
# Where two headings read alike, the source gives them in different places.
# Key:
# [1] = test system: DU 145; experiment: cells; settings: Homo sapiens, DU-145, 96 h
# [2] = test system: WM-164; experiment: SRB cell growth inhibition (cytotoxicity) assay; assay type: cell-based, human; settings: Homo sapiens, 48 h, SRB
# [3] = test system: PPC-1; experiment: cells; settings: Homo sapiens, PPC-1, 96 h
# [4] = test system: LNCaP; experiment: cells; settings: Homo sapiens, 96 h
# [5] = test system: B16-F1; experiment: SRB cell growth inhibition (cytotoxicity) assay; assay type: cell-based, mouse; settings: Mus musculus, 48 h, SRB
# Text: (§1) The only compounds which belong to the invention are the ones falling under the scope of formula (XI).
# [6] = test system: A375; experiment: SRB cell growth inhibition (cytotoxicity) assay; assay type: cell-based, human; settings: Homo sapiens, A-375, 48 h, SRB
# [7] = test system: PC-3; experiment: cells; settings: Homo sapiens, PC-3, 96 h
# Text: as §1
# Cells were stained with SRB solution.
# Cells. […] Cells between the third and fifth passages were used for experiments.
# Cell growth inhibition studies. […] Cells were stained with sulphorhodamine B (SRB) solution.
# [8] = read-out: IC50 ± SEM (nM) Du 145
# [9] = WM164 melanoma cells, read-out: IC50 ± SEM (nM) WM164
# [10] = read-out: IC50 ± SEM (nM), PPC-1
# [11] = read-out: IC50 ± SEM (nM), LNCaP
# [12] = B16-F1 melanoma cells, read-out: IC50 ± SEM (nM) B16-F1
# [13] = A375 melanoma cells, read-out: IC50 ± SEM (nM) A375
# [14] = read-out: IC50 ± SEM (nM), PC-3
# [15] = WM164, Tables 11, 12, read-out: IC50 (nM), WM164
# [16] = B16-F1, Table 11, read-out: IC50 (nM), B16-F1
# [17] = Table 11, read-out: IC50 (nM), A375
SMILES,"IC50 [1, 8] [nM]","IC50 [2, 9] [nM]","IC50 [3, 10] [nM]","IC50 [4, 11] [nM]","IC50 [5, 12] [nM]","IC50 [6, 13] [nM]","IC50 [7, 14] [nM]","IC50 ([1]; read-out: IC50 (nM), Du 145) [nM]","IC50 [2, 15] [nM]","IC50 ([3]; read-out: IC50 (nM), PPC-1) [nM]","IC50 ([4]; read-out: IC50 (nM), LNCaP) [nM]","IC50 [5, 16] [nM]","IC50 [6, 17] [nM]","IC50 ([7]; read-out: IC50 (nM), PC-3) [nM]"
"COc1cc(-c2nc(C(=O)c3ccc(F)cc3)cn2S(=O)(=O)c2ccccc2)cc(OC)c1OC [11eb, (4-fluorophenyl)(1-(phenylsulfonyl)-2-(3,4,5-trimethoxyphenyl)-1H-imidazol-4-yl)methanone]",> 10000,> 10000,> 10000,> 10000,> 10000,3840,> 10000,–,–,–,–,–,–,–
"COc1cc(C(=O)c2cn(S(=O)(=O)c3ccccc3)c(-c3ccc(N(C)C)cc3)n2)cc(OC)c1OC [11ga, (2-(4-(dimethylamino)phenyl)-1-(phenylsulfonyl)-1H-imidazol-4-yl)(3,4,5-trimethoxyphenyl)methanone]",99 ± 2,308 ± 32,72 ± 0.4,62 ± 2,1200 ± 90,162 ± 13,93 ± 6,–,–,–,–,–,–,–
"CN(C)c1ccc(-c2nc(C(=O)c3ccc(F)cc3)cn2S(=O)(=O)c2ccccc2)cc1 [11gb, (2-(4-(dimethylamino)phenyl)-1-(phenylsulfonyl)-1H-imidazol-4-yl)(4-fluorophenyl)methanone]",74 ± 0.5,56 ± 4,48 ± 0.3,56 ± 6,242 ± 26,55 ± 7,83 ± 3,–,–,–,–,–,–,–
"COc1ccc(-c2nc(C(=O)c3cc(OC)c(OC)c(OC)c3)cn2S(=O)(=O)c2ccccc2)cc1OC [11ha, (2-(3,4-dimethoxyphenyl)-1-(phenylsulfonyl)-1H-imidazol-4-yl)(3,4,5-trimethoxyphenyl)methanone]",144 ± 29,139 ± 15,117 ± 2,114 ± 6,970 ± 68,192 ± 15,197 ± 9,–,–,–,–,–,–,–
"COc1ccc(-c2nc(C(=O)c3ccc(F)cc3)cn2S(=O)(=O)c2ccccc2)cc1OC [11hb, (2-(3,4-dimethoxyphenyl)-1-(phenylsulfonyl)-1H-imidazol-4-yl)(4-fluorophenyl)methanone]",3310,1400 ± 30,1440 ± 49,1920 ± 77,2000 ± 400,960 ± 59,10000,–,–,–,–,–,–,–
"COc1cc(C(=O)c2cn(S(=O)(=O)c3ccccc3)c(-c3ccccc3C(F)(F)F)n2)cc(OC)c1OC [11ia, (1-(phenylsulfonyl)-2-(2-(trifluoromethyl)phenyl)-1H-imidazol-4-yl)(3,4,5-trimethoxyphenyl)methanone]",> 10000,> 10000,> 10000,> 10000,> 10000,> 10000,> 10000,–,–,–,–,–,–,–
"O=C(c1ccc(F)cc1)c1cn(S(=O)(=O)c2ccccc2)c(-c2ccccc2C(F)(F)F)n1 [11ib, (1-(phenylsulfonyl)-2-(2-(trifluoromethyl)phenyl)-1H-imidazol-4-yl)(4-fluorophenyl)methanone]",> 10000,> 10000,> 10000,> 10000,> 10000,> 10000,> 10000,–,–,–,–,–,–,–
"COc1ccc(C(=O)c2c[nH]c(-c3ccccc3)n2)cc1 [12ab, (4-methoxyphenyl)(2-phenyl-1H-imidazol-4-yl)methanone]",–,–,–,–,–,–,–,> 10000,> 10000,> 10000,> 10000,> 10000,> 10000,> 10000
"COc1cccc(C(=O)c2c[nH]c(-c3ccccc3)n2)c1 [12ac, (3-methoxyphenyl)(2-phenyl-1H-imidazol-4-yl)methanone]",–,–,–,–,–,–,–,> 10000,> 10000,> 10000,> 10000,> 10000,> 10000,> 10000
"COc1cc(OC)cc(C(=O)c2c[nH]c(-c3ccccc3)n2)c1 [12ad, (3,5-dimethoxyphenyl)(2-phenyl-1 H-imidazol-4-yl)methanone]",–,–,–,–,–,–,–,2590,2100,2130,3610,5400,2800,3270
